Results: patent US11364280B2, “Method for blocking stress-induced tumor progression” (Taipei Veterans General Hospital, priority 2018, dated 2022)
No end group written: not given here.

Assays:
[1] = tested on: MSI1 translocation into the cytosol in 05 MG cells; test: MSI1 subcellular translocation (immunostaining, fractionation immunoblot); type: cell-based, human; details: LMB 10 ng/mL, 2 h pre-treatment; hypoxic and cisplatin treatment
Method: Magnifying power: 200× (top) and 600× (bottom). Quantitation of cells expressing cytoplasmic or nuclear MSI1 is shown in the bar graph on the right. FIG. 1B 05 MG cells pre-treated with or without nuclear export inhibitor leptomycinB (LMB) (10 ng/mL, 2 h) under normoxia or hypoxia conditions for 24 hr were subjected to anti-MSI1 (green) immunostaining and DAPI (blue) nuclear counterstaining. Images were acquired from Carl Zeiss confocal microscope system. The intensity of green fluorescence in nuclear and cytosol was quantified and shown as relative percentage in the graph at the right. […] FIG. 1D provides a schematic showing the mutation sites in the NLS (orange) and NES (red) of human MSI1. All constructs were sub-cloned into p-3×Flag-Myc-CMV expression vector. […] Images were acquired from Carl Zeiss confocal microscope system, and the quantification of fluorescent intensity in the nuclear and cytosolic compartments was shown as relative percentage in the graph at the left. […] Tumor size was measure with a caliper at the indicated time points. […] The tumor size was measured with a caliper at the indicated time points. […]
The ratio of MSI1 expression in each group was presented in the graph. […] Hypoxia-induced apoptosis was withdrawn by the over-expression of wild-type MSI1 but not in mutant MSI1 groups determined by annexin V staining, MTT assay, and colony forming assay. […]

[2] = target: T1, His-tagged AGO2 recombinant protein (Homo sapiens, UniProt Q9UKV8); test: PepSpot high-throughput peptide tiling array; type: binding; details: 27 peptides of MSI1 C-terminus
T1 construct: made in house; host or cells: High Five insect cells (baculovirus, Bac-To-Bac; virus made in Sf9)
Method: (§1) The relative orientation of peptide-binding site and AGO2 pocket was depicted. […] The recombinant AGO2 protein was immobilized on CM5 chip and incubated with a serial dilution (from 625 to 10000 nM) of the two peptides, respectively. The association and dissociation between TAT-11, TAT-26 and immobilized AGO2 were tested by SPR (top). The association rate constant (Ka), dissociation rate constant (Kd), and equilibrium dissociation constant (KD) were calculated and presented in the chart (bottom).
To rapidly screen the putative binding hotspots along the C-terminus of MSI1, we mimicked the epitope screening method by dotting the synthetic short peptides on nitrocellulose membrane and incubated with purified AGO2 protein^39. The C-terminus of MSI1 (201-262) was divided into 27 individual synthetic peptides with N-terminal amine attached on the nitrocellulose. Each peptide is 15 amino acids in length and has […] overlapping with the previous neighboring peptide (Suppl. Table IV). The purchased PepSpot membrane (JPT peptide technologies, Berlin, Germany) was firstly rinsed by methanol for 5 minutes, followed by Tris buffer saline supplemented with 0.1% Tween-20 (TBS-T) washing thrice. […]

[3] = target: T1, His-tagged AGO2 recombinant protein; test: Affinity measurement by surface plasmon resonance (SPR); type: binding; details: AGO2 immobilized on CM5 chip; peptide serial dilution 625 to 10000 nM; Langmuir 1:1 model; read-out: equilibrium dissociation constant (KD)
Method: as §1
A Biacore T200 (GE Healthcare) was used to study the binding affinity of the TAT-11 and TAT-26 peptides with recombinant His-tagged AGO2 protein. The recombinant His-AGO2 and TAT peptides were diluted in HBS-P buffer ([…], 150 mM NaCl and 0.005% P20, pH 7.4). To evaluate the binding affinity, recombinant His-AGO2 was immobilized on a CM5 sensor chip (GE Healthcare, BR100012) via amine coupling (˜7000 RU) for 3600 sec at rate of 5 μl/mins, followed by dissociation for 600 s. After injection of each peptide, the surface was regenerated with an injection of 10 mM NaOH. All sensorgrams were double referenced by subtracting the surface effect from the control flow […] and the buffer effect form the blank buffer. The kinetic values Ka, Kd and KD were obtained using Biacore […] Evaluation Software (GE healthcare) assuming the Langmuir 1:1 binding model.

[4] = tested on: MSI1/AGO2 downstream mRNA; test: qRT-PCR of downstream mRNA targets of MSI1-AGO2, hypoxia versus normoxia; type: cell-based, human; details: six targets
Method: FIG. 4A provides a schematic illustrating the full-length and C-terminal (C-term) fragment of human MSI1. The construct of MSI1 C-term was sub-cloned into p-3×Flag-Myc-CMV expression vector. […] Quantification of the fold changes of binding signals was performed by normalizing IP signals to IgG-precipitated controls. The peaks indicated MSI1 or AGO2 palindromic-binding sequence. […] Purified total RNA was subjected to RT-PCR using primers specific for NF2, TP53, CDKN1A, CCND1, CDK4, and HELLS. The mRNA levels under hypoxia were normalized with that under normoxia and presented as relative fold changes in the chart. […] The relative fold change of the number of viable cells in each day was presented in the graph. […] Xenograft tumor size was monitored from day 2 after injection of Flag-control or Flag-C-term. […] Tumor size was then monitored for 22 days. The expression of MIS1-C-term in the xenograft tumor tissue was assessed by Western blot. […] […]
Oligonucleotide specificity was computer tested (BLAST, National Center for Biotechnology Information. Bethesda. Md., USA) by homology search with the human genome and later confirmed by melting curve analysis. […] Signals were detected using 7900HT Fast Real-time PCR system (Applied Biosystems, Foster City, Calif., USA). […]

in vitro = details: human
Method: (§2) After 0.5, 1, 2, 4 and 6 hours, cell lysates were collected and the fluorescent intensity was detected by ELISA reader. N=3 at each time point. […] Cells were washed and observed under microscopy at the indicated time points. […] To facilitate comparison of intake and degradation dynamics, mean fluorescence values were normalized to stating fluorescence. All data represent three independent experiments.

MSI1/AGO2 interaction [5] = target: T2, MSI1/AGO2 interaction (Homo sapiens, UniProt Q9UKV8); test: Co-immunoprecipitation of endogenous MSI1 and AGO2 under hypoxia; type: cell-based; design: endogenous in cells; details: 10 μM peptide, hypoxic condition
MSI1/AGO2 interaction [6] = target: T2, MSI1/AGO2 interaction; test: Split Gaussia luciferase reconstitution reporter assay; type: cell-based; design: expressed in transfected cells; lysates used for the in vitro read-out; details: 10 μM peptide; in vitro and in vivo
Method: as §1
FIG. 14A provides schematic presentation of the constructs of full-length, C-terminus, and N-terminus of MSI1 as well as wild-type AGO2 for purifying recombinant proteins. FIG. 14B provides pull-down assay with recombinant MSI1 and AGO2 proteins showing that the C-terminus of MSI1 is essential for the direct MSI1/AGO2 interaction. […] FIG. 14D provides the schematic illustration of the split luciferase reconstitution imaging system to real-time monitor the interaction between MSI1 and AGO2.
To use Gaussia luciferase (Gluc) for detecting protein-protein interaction, we split Gaussia luciferase into NGluc (N-terminal Gluc, 106 a.a.) and CGluc (C-terminal Glue. 79 a.a.)^53,54. The two fragments were amplified by polymerase chain reaction (PCR) and subjected to construct fusion protein with MSI1 and AGO2 by the pcDNA 3.1 and pCMV backbone, respectively. Each fusion protein contains a flexible linker (GGGGS)2 between the protein and polypeptides of split luciferase^55,56. Stable cell lines were obtained by stable transfection of both fusion protein expressive plasmids in 05 MG GBM cell line with Hygromycin B (Sigma Aldrich Co., St. Louis, […]., USA) and G418 sulfate (Merck Co., Berlin, Germany). […] The bioluminescent signals were acquired by Wallac 1420 Victor^2 Microplate Reader (Perkin Elmer, Waltham. Mass., USA) equipped with auto-dispenser to avoid rapid decay of GLuc. […] The region of interests (ROI) was automatically chosen by the Living Image 4.2 software and quantified as photon flux in a certain area per second (photons/s/cm^2).

05 MG cells = test: Cellular uptake of fluorescein labeled peptides, fluorescence read by ELISA reader; details: for time to significant cellular uptake: 05 MG cells; for EC50: read-out: half-uptake concentration (EC50), fluorescein labeled peptides, 05 MG cell line
Method: The biological activity of peptides was tested in 05 MG cell line. The cells were treated with different concentration of fluorescein labeled peptides and was measured using ELISA reader.
as §2

T1 sequence (Q9UKV8 whole entry): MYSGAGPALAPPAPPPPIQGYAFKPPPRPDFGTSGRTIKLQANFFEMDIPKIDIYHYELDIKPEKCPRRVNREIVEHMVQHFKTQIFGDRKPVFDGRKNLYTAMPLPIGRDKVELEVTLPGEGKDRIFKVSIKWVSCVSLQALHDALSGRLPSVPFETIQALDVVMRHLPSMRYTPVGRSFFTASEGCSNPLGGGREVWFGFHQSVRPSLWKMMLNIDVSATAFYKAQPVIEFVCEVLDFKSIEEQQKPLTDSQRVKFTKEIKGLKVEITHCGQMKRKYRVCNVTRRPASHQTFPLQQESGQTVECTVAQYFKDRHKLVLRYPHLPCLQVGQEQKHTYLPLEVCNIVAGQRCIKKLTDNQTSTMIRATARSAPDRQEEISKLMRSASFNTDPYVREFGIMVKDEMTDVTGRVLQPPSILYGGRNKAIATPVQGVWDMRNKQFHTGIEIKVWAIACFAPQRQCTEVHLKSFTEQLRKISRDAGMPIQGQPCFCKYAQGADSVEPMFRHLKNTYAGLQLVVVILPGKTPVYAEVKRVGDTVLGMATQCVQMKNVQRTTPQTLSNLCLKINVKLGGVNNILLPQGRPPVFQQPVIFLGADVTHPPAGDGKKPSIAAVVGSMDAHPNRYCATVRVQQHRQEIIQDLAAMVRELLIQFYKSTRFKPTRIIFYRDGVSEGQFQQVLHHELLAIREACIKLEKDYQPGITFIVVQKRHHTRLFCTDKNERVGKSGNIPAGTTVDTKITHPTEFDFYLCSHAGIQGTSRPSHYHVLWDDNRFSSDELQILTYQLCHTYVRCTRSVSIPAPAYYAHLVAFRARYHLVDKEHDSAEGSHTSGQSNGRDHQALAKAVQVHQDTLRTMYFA
T2 sequence (Q9UKV8 whole entry): as above

| binding of recombinant AGO2 to arrayed peptide [2] | Molecule | MSI1 translocation into the cytosol [1] | Kd [3] | effect of MSI1/AGO2 binding on downstream mRNA [4] | half-life (in vitro) | effect on MSI1/AGO2 interaction (co-IP immunoblot) (MSI1/AGO2 interaction [5]) | effect on bioluminescent signal of split Gaussia luciferase (MSI1/AGO2 interaction [6]) | time to significant cellular uptake (05 MG cells) | EC50 (05 MG cells) |
| --- | --- | --- | --- | --- | --- | --- | --- | --- | --- |
|  | CCC(=C/[C@H](C)C/C=C/C(C)=C/[C@@H](C)C(=O)[C@@H](C)[C@H](O)[C@@H](C)C/C(C)=C/C(=O)O)/C=C/[C@@H]1OC(=O)C=C[C@@H]1C [Leptomycin B] | strongly reduced MSI1 translocation into the cytosol |  |  |  |  |  |  |  |
| preferentially bound | HSLGGPLIATAFTNG [compound 26] |  |  |  |  |  |  |  |  |
|  | HSLGGPLIATAFTNGGRKKRRQRRRPPQ [TAT-26] |  | 4.63 µM | reversed | ≤ 4 h | effectively abrogated the MSI1/AGO2 interaction | dramatically turned down the bioluminescent signal in vitro and in vivo | within one hour | 9.02 µM |
| preferentially bound | YQFPEFRVERTPLPS [compound 11] |  |  |  |  |  |  |  |  |
|  | YQFPEFRVERTPLPSGRKKRRQRRRPPQ [TAT-11] |  | 3.33 µM | reversed | ≤ 4 h | effectively abrogated the MSI1/AGO2 interaction | dramatically turned down the bioluminescent signal in vitro and in vivo | within one hour | 9.1 µM |
